In patent US9573899B2, “USP7 inhibitor compounds and methods of use” (Genentech, Inc., priority 2015, dated 2017):

Columns and labels:
USP7 = molecular target: T1, USP7 (Homo sapiens, UniProt Q93009); test: Ub-Rho110 DUB assay, Table 2, USP7; assay type: biochemical; conditions: for selectivity of antagonism of USP7 catalytic activity over the DUBs evaluated: conclusion from Table 2 (USP7, USP7 cat, USP47, USP5)
T1 construct: USP7, full-length, native C-Terminus, 0.2 nM
Description: (§2) Biochemical USP7 assays using Ubiquitin-Rho110 as a substrate: The final assay conditions were as follows: The Reaction Buffer consisted of: 50 mM Tris (pH 7.5), 0.01% (v/v) Triton X-100, 2.5 mM Dithiothreitol, 0.1% (w/v) bovine gamma globulin (Sigma cat #G5009-25G); USP7, full-length, native C-Terminus, 0.2 nM; the substrate, Ubiquitin-Rho110 (Boston Biochem cat #U-555), 1 uM. Reactions were carried out for 1 hour at room temperature, in black 20 μL volume polystyrene ProxiPlate 384 F Plus® (PerkinElmer cat #6008260).
(§3) Test compounds, including a control USP7 inhibitor (Ub-aldehyde, Boston Biochem cat #U-201) were serially diluted in DMSO, in 384 well clear V-bottom polypropylene plates (Greiner cat #781280). Compounds in DMSO were diluted 10-fold into Reaction Buffer, to achieve 3-fold the final desired concentration. The substrate, Ubiquitin-Rho110 (Boston Biochem cat #U-555), was prepared at 3 μM (3-fold the final concentration) and 5 ul was dispensed into the reaction plate. 5 ul of the compounds (diluted in Reaction Buffer at 3-fold the final concentration) were transferred to the reaction plate. 5 ul of 0.6 nM USP7 (diluted in Reaction Buffer at 3-fold the final concentration) was transferred to the reaction plate to initiate the reaction. After 1 hour incubation at room temperature the reaction was quenched by the addition of 5 ul of 400 mM acetic acid. The enzymatic product was measured by quantifying the fluorescence signal of cleaved Rhodamine-110 using excitation at 485 nm and emission at 535 nm. When pre-incubation of USP7 with compounds was required, the order of addition of reagents was modified to pre-mix the compounds with USP7 (with a 1 hour incubation period), prior to the addition of the substrate and the initiation of the reaction period. Percentage inhibition values were calculated relative to a no enzyme control and a uninhibited enzyme control. Curve fitting and IC50 calculations were carried out using Genedata Screener software.

USP7 catalytic domain = USP7 catalytic domain (Homo sapiens, UniProt Q93009); test: Ub-Rho110 DUB assay, Table 2, USP7 catalytic domain; assay type: biochemical; conditions: read-out: Ub-Rho110 IC50, USP7 cat
Chain of USP7 catalytic domain (Q93009 214-521 limits assumed): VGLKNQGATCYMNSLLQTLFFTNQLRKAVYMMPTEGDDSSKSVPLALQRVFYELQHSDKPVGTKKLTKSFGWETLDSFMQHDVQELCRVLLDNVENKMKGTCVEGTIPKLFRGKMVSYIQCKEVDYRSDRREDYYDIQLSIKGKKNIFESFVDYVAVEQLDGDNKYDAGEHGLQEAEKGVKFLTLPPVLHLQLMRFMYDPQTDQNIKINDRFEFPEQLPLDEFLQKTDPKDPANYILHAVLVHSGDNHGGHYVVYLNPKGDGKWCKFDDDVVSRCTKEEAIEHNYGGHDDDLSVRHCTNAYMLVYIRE
Description: as §2, §3

USP47 = molecular target: T2, USP47 (Homo sapiens, UniProt Q96K76); test: Ub-Rho110 DUB assay, Table 2, USP47; assay type: biochemical
T2 sequence (Q96K76 1-1375): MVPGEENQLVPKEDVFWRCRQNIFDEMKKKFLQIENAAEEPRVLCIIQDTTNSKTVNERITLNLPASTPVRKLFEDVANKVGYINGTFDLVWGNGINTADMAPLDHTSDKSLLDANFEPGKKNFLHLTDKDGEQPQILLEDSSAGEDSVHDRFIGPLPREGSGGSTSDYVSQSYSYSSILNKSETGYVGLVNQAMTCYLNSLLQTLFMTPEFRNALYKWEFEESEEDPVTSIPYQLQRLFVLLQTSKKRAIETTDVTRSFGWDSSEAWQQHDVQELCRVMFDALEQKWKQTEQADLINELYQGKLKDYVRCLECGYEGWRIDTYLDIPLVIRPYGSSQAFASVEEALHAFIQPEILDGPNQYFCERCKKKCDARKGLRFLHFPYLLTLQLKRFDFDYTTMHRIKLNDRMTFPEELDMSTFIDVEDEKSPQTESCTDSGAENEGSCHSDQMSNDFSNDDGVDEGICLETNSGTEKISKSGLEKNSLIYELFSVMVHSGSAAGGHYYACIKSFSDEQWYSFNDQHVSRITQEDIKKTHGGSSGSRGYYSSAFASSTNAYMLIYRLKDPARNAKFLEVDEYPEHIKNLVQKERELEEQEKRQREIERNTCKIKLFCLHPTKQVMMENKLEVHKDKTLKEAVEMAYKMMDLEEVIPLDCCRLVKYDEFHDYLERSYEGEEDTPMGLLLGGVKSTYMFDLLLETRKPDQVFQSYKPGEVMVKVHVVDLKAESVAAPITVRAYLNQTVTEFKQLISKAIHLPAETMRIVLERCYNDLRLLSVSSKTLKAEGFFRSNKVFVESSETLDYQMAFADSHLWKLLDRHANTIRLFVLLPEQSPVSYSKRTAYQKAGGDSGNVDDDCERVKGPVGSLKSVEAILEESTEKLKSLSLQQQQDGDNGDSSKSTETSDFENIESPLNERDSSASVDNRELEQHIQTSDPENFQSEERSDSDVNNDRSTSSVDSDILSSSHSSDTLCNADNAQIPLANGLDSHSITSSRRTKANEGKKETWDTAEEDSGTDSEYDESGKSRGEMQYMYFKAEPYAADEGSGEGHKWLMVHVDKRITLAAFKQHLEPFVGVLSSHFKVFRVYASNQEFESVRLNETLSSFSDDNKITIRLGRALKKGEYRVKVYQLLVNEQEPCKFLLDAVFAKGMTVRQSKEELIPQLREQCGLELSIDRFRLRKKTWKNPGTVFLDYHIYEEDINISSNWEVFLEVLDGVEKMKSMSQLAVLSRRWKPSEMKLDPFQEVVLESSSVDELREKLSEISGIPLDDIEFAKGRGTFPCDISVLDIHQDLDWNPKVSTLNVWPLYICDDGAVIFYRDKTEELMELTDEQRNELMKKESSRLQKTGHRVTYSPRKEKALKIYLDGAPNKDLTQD

[1] = tested on: p53 and p21 in HCT116 colon cancer cell lines; test: Western blot of p53 and p21 in isogenic HCT116 cell lines (FIG. 2A); assay type: cell-based, Human; conditions: isogenic HCT116: wild-type, USP7 null
Description: (§1) In 24-well plates, 0.10-0.15×10^6 (adherent) or 0.5×10^6 (suspension) cells were treated with 15 μM or 2.5 μM compounds, respectively, for 24 h in low serum prior to lysis for Western Blot analysis.

USP5 = molecular target: T3, USP5 (Homo sapiens, UniProt P45974); test: Ub-Rho110 DUB assay, Table 2, USP5
T3 sequence (P45974 1-858): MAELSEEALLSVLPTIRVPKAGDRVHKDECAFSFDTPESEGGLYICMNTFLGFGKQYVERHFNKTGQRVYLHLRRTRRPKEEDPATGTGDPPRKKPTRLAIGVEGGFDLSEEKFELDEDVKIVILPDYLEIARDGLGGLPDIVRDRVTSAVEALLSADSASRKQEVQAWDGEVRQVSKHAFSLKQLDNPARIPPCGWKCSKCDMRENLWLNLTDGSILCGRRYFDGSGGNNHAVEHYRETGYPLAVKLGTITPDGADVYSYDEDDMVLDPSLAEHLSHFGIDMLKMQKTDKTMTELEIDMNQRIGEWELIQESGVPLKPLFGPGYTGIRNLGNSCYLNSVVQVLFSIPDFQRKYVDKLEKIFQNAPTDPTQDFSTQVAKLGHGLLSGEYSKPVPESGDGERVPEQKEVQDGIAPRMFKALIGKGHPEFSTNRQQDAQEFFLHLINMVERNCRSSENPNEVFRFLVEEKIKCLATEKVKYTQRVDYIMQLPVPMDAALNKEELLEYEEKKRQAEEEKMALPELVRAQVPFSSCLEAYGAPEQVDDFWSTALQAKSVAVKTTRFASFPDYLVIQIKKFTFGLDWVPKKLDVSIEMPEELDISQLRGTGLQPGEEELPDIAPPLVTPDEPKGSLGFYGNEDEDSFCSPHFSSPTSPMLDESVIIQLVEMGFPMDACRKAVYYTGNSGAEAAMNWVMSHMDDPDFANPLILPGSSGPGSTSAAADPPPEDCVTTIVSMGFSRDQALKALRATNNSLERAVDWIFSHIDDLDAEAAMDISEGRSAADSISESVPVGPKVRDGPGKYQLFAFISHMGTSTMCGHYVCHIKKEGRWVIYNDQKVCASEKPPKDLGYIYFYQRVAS

[2] = molecular target: T4, USP7, full-length, native C-Terminus (Homo sapiens, UniProt Q93009); test: Biochemical USP7 assay with Ubiquitin-Rho110 substrate, compounds pre-incubated with USP7 (USP7_Ub-Rho preInc); conditions: compounds pre-mixed with USP7, 1 hour incubation, before substrate; read-out: USP7 Ub-Rho preInc (IC50)
T4 construct: USP7, full-length, native C-Terminus, 0.2 nM
T4 sequence (Q93009 whole entry): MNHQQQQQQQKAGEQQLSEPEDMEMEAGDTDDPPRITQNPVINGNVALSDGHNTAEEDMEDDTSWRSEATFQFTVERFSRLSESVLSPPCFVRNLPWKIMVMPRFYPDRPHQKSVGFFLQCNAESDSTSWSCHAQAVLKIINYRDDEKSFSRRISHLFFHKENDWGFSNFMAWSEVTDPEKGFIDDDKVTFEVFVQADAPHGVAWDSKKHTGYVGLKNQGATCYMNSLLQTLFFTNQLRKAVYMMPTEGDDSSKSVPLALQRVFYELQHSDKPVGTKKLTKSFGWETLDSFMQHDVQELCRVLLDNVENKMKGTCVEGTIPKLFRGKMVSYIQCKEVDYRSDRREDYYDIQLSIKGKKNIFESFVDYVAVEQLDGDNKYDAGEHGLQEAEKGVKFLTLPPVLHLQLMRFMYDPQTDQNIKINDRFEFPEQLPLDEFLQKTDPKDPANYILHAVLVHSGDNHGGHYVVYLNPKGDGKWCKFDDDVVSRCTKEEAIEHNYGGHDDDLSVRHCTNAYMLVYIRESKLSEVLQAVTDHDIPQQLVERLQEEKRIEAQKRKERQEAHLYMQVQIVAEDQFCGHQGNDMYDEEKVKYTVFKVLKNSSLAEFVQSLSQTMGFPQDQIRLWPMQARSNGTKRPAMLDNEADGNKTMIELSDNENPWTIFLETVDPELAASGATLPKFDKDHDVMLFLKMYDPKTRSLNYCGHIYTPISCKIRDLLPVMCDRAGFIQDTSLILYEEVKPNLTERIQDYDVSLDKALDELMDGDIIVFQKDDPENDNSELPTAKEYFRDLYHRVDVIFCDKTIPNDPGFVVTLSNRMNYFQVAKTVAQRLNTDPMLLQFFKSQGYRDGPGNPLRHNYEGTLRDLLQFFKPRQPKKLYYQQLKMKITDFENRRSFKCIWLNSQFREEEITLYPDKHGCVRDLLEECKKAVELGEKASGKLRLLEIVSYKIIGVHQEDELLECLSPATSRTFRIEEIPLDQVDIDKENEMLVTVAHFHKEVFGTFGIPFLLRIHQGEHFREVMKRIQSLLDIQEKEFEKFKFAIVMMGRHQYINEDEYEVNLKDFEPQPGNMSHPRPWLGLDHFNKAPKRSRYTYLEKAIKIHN
Method in brief: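 Full-length USP7 (0.2 nM) cleaving Ubiquitin-Rho110 (1 uM) in pH 7.5 Tris buffer with DTT, 1 h at room temperature, acetic-acid quenched; Rho110 fluorescence at 485/535 nm. Pre-incubation variant: compound and USP7 mixed 1 h before substrate addition. IC50 from % inhibition versus no-enzyme and uninhibited controls.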

[3] = tested on: MDM2 in MCF7 breast cancer cells; test: MDM2 turnover in MCF7 cells with cycloheximide (FIG. 3A); assay type: cell-based; conditions: 15 μM, in the presence of cycloheximide (CHX)
Description: In 24-well plates, 0.15×10^6 MCF-7 cells were treated for a total of 8 h with DMSO or compounds (15 μM). During that 8 h, cycloheximide (CHX) was added for the indicated times prior to harvest.

[4] = tested on: p53, p21, MDM2 and E6AP in RKO, RKO-E6, Vibo and SiHA cell lines; test: Western blot in RKO, RKO-E6, Vibo and SiHA cells (FIG. 14A); assay type: cell-based
Description: as §1

[5] = tested on: colon cancer cell lines RKO and RKO-E6, and cervical cancer cell lines Vibo and SiHA; test: Incucyte cell proliferation in RKO, RKO-E6, Vibo and SiHA cells (FIG. 15); assay type: cell-based
Description: 2,500-5,000 cells were seeded in 1-well of a 96-well plate (Corning; 3904). The following day, the media was changed from normal (10%) to low serum (0.5%) containing vehicle (DMSO) or compounds. 16-24 h later FBS was added to each well to bring serum levels back to normal (10%). Cells were then allowed to grow for 2 days. All treatments were done in triplicate. The day after cells were seeded, the media was changed to low serum media containing 2 μM CellEvent Caspase 3/7 reagent (Life Technologies; C10423) and compounds. The plates were placed in an IncuCyte (Essen Bioscience, Inc.) live cell imager and scanning was started 15-20 mins after. IncuCyte™ ZOOM facilitates live-cell monitoring via customized imaging protocols. Images were taken every 2 h for at least 3 days, using a 10× objective. Phase contrast was used to measure cell confluency/density while green fluorescence was used to measure caspase activity. The images were analyzed using IncuCyte software (Basic Analysis parameters) and a ratio of caspase activity to cell density was determined.

T1 sequence (Q93009 whole entry): as above

Row | Compound | IC50 (USP7) | selectivity of antagonism of USP7 catalytic activity over the DUBs evaluated (USP7) | IC50 (USP7 catalytic domain) | IC50 (USP47) | stabilization of p53 and p21 (western blot) [1] | IC50 (USP5) | IC50 [2] | destabilizing effect on MDM2 (western blot) [3] | effect on p53, p21, MDM2 and E6AP (western blot) [4] | cell viability (Incucyte cell proliferation) [5]
1 | CCc1c(-c2ccc(O)cc2)cnc(N)c1-c1ccc(COC)cc1 [Compound 25, 4-[6-amino-4-ethyl-5-[4-(methoxymethyl)phenyl]-3-pyridyl]phenol] | > 63300 nM | ineffective in antagonizing the activity of any DUB evaluated | > 63300 nM | > 200 µM | stabilize p53 and p21 | > 200 µM | – | – | – | –
2 | CCc1c(-c2ccc(C(N)=O)cc2)cnc(N)c1-c1ccc(O)cc1 [Compound 45, 4-[6-amino-4-ethyl-5-(4-hydroxyphenyl)-3-pyridyl]benzamide] | 2900 nM | selective antagonists of USP7 catalytic activity | 1300 nM | > 200 µM | not | > 200 µM | 2600 nM | – | – | –
3 | CCc1c(-c2ccc3cn(C)nc3c2)cnc(N)c1-c1ccc(O)cc1 [Compound 89, 4-[2-amino-4-ethyl-5-(2-methylindazol-6-yl)-3-pyridyl]phenol] | – | – | – | > 200 µM | not | > 200 µM | – | less active | stabilize p53, p21, and destabilize MDM2 and E6AP | not
